From PMC6588349 (eLife, 2019) come the findings set out here.

Entries after “also recorded” stand apart in the source; their conditions may differ. Like-named read-outs stand apart in the source and are kept apart here.

Common to all, as to assay type: cell-based
Assay [1] has as its target T1, SNAP-mGluR2 (full-length) (Rattus norvegicus, UniProt P31421).
T1 construct: HEK 293T cells expressing full-length mGluR2; expressed in transfected cells; host or cells: HEK 293T
The assay is described as follows: Inter-LBD FRET assay with full-length SNAP-mGluR2. As to conditions: saturating concentrations; for direct effect on inter-LBD FRET (no orthosteric agonist for modulators): drug applied alone; for effect on inter-LBD FRET response to DCG-IV: agonist DCG-IV. The text has this: We next sought to further probe the variation in PAM-induced inter-TMD FRET changes. […] We used an inter-LBD FRET assay to assess the relative strength of allosteric modulation by different mGluR2 PAMs. Agonists induce a decrease in FRET between fluorophore-conjugated N-terminal SNAP- and CLIP-tags (Figure 4E). […] We tested this effect for all PAMs by applying a saturating concentration of DCG-IV followed by co-application of a saturating concentration of each PAM, which produced further FRET decreases (Figure 4F,G).
(§1) Fluorophores were diluted in EX solution, which was also used to wash coverslips following labeling and prior to mounting on the microscope. After labeling, cells were mounted on an inverted microscope (Olympus IX73) and imaged with a 60x objective. […] Clusters of cells were analyzed together using ImageJ and FRET was calculated as FRET=(IAcceptor)/(IDonor +IAcceptor) where I is fluorescence intensity. No corrections were made for bleed-through between channels or the contribution of donor-donor or acceptor-acceptor dimers as analysis was limited to relative FRET changes between drug treatments rather than absolute FRET values. […] FRET changes calculated for dose–response curves were normalized to the response to saturating […] applied within the same recording and dose–response curves were obtained from multiple cell clusters and averaged from at least three separate experiments. Dose–response curves were fit using Prism (Graphpad). All drugs were purchased from Tocris, prepared in EX solution, and delivered with a gravity-driven perfusion system. For kinetics measurements a pressurized perfusion system (Automate Scientific) was used to produce a flow rate of 0.5 mL/s. Kinetic analysis was performed in Microsoft Excel. The time between 10% and 90% FRET increase or decrease was determined manually. For photo-bleaching/donor-recovery experiments, images were taken in donor and acceptor channels at baseline and again followed by a 1 min exposure to 640 nm laser illumination at maximum intensity. All experiments were performed at room temperature. All data were produced from at least two separate transfections for each condition.

For the next assay, the target named is T2, SNAP-mGluR2-TMD (Rattus norvegicus, UniProt P31421).
T2 construct: mGluR2-TMD (rat) starts at Q558; expressed in transfected cells; host or cells: HEK 293T
The assay is described as follows: Inter-TMD FRET assay in living HEK 293T cells. To be noted: for EC50: normalized to saturating LY48; for inter-TMD FRET response to drug alone: drug applied alone, XA up to 50 µM.
Description: We therefore sought to develop a FRET sensor that reports on activation-associated motions driven by allosteric drugs and hypothesized that an N-terminal fluorophore on the isolated TMD should report on any inter-TMD rearrangement while allowing the receptor to maintain G-protein coupling (Figure 3A). […] To test if LBD-independent inter-TMD rearrangement is a feature of other mGluRs, we asked if donor and acceptor conjugation to SNAP-mGluR5-TMD would allow for the detection a FRET response to a PAM.
Cells were cultured in DMEM with 5% FBS on poly-L-lysine-coated glass coverslips. DNA plasmids were transfected into cells using Lipofectamine 3000 (Thermo Fisher). […] For single-molecule pulldown (SiMPull) experiments, cells were transfected with 0.7 μg DNA of HA and SNAP-tagged receptor constructs, unless otherwise noted. For FRET experiments, cells were transfected with either SNAP-tagged constructs at 0.5–0.7 μg of DNA/well or SNAP and CLIP-tagged constructs at a ratio of 1:2 with 0.3 μg of SNAP DNA/well.
as §1

Assay [2] concerns the target T3, full-length mGluR2 (SNAP-mGluR2) (Rattus norvegicus, UniProt P31421).
T3 construct: HEK 293T cells expressing full-length mGluR2; expressed in transfected cells; host or cells: HEK 293T
Nature of the assay: GIRK activation assay, whole cell patch clamp, HEK 293T cells expressing full-length mGluR2. To be noted: for effect on basal GIRK current in the absence of glutamate: NAM alone, HEK 293T cells expressing GIRK and full-length mGluR2. On the procedure: Cells were cultured in DMEM with 5% FBS on poly-L-lysine-coated glass coverslips. DNA plasmids were transfected into cells using Lipofectamine 3000 (Thermo Fisher). […] For single-molecule pulldown (SiMPull) experiments, cells were transfected with 0.7 μg DNA of HA and SNAP-tagged receptor constructs, unless otherwise noted.
Whole-cell patch clamp recordings from single isolated cells were performed 24–36 hr after transfection in a high-potassium extracellular solution containing (in mM): 120 KCl, 29 NaCl, 1 MgCl2, 2 CaCl2 and 10 HEPES, pH 7.4. Cells were voltage clamped to −60 mV using an Axopatch 200B amplifier (Axon Instruments) and membrane currents were recorded. Glass pipettes of resistance between 3 and 8 MΩ were filled with intracellular solution containing (in mM): 140 KCl, 10 HEPES, 3 Na2ATP, 0.2 Na2GTP, 5 EGTA and 3 MgCl2, pH 7.4. Data were acquired with a 2 kHz acquisition rate and filtered with the amplifier 4-pole Bessel filter at 1 kHz. Drugs were prepared in extracellular solution and applied using a gravity-driven perfusion system. Data were analyzed with Clampfit (Molecular Devices) and Prism (GraphPad). Data for all conditions came from at least two separate transfections.
(In general: Patch clamp records ionic current or voltage across a cell membrane.)

Setting [3] is: SNAP-mGluR2-TMD labeled with donor and acceptor, mean ± s.e.m., read-out: inter-TMD FRET increase EC50.

T1 sequence (P31421 19-872): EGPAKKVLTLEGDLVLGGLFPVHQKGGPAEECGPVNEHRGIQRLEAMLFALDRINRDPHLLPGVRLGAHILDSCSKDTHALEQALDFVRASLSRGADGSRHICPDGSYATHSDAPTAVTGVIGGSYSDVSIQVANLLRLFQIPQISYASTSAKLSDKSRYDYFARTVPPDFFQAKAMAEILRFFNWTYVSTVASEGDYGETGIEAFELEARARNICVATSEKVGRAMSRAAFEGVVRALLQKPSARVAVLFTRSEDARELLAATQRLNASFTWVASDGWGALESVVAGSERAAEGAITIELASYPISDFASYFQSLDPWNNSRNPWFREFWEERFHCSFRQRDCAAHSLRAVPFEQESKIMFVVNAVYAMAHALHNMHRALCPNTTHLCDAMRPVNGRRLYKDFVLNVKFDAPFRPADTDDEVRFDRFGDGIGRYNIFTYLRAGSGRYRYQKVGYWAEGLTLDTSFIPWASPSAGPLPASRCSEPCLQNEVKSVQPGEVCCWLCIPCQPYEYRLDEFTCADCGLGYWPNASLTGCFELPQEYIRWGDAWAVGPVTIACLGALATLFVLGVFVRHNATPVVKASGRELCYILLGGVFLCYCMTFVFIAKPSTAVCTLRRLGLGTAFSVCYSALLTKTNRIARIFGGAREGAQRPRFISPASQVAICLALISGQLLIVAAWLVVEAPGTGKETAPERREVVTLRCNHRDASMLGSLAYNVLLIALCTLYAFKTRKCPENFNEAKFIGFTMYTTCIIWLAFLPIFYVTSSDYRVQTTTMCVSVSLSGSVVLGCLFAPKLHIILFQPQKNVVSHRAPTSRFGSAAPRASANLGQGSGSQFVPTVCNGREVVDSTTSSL
T3 sequence (P31421 19-872): as above
T2 sequence (P31421 558-872 limits assumed): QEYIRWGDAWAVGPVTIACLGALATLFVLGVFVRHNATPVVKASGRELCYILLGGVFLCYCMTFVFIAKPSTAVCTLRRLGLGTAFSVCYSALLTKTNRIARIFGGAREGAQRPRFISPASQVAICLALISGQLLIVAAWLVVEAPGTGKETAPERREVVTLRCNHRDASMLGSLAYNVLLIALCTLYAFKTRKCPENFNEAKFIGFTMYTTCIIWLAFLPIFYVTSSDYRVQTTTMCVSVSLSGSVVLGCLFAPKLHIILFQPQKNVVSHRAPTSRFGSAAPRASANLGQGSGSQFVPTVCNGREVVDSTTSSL

With `COc1ccccc1Oc1ccc(N(Cc2cccnc2)S(=O)(=O)CC(F)(F)F)cc1` [LY48], the “direct effect on inter-LBD FRET (no orthosteric agonist for modulators)” value in assay [1] was “no effect on FRET level; also recorded: unable to directly induce LBD closure”. Besides, the EC50 (commonly the concentration at which the effect is half-maximal) was 900 ± 100 nM at SNAP-mGluR2-TMD (SNAP- and CLIP-mGluR2-TMD co-expressed, read-out: inter-TMD FRET increase EC50, co-expression of SNAP- and CLIP-mGluR2-TMD); 1200 ± 100 nM at SNAP-mGluR2-TMD (setting [3]); 600 ± 40 nM on SNAP-mGluR2-TMD (co-expression of dominant negative Gα protein, read-out: inter-TMD FRET increase EC50 with dominant negative G protein); about 300 nM in assay [2] (mGluR2-WT, read-out: GIRK activation EC50 (approximate)); 230 ± 40 nM in assay [2] (wild-type SNAP-mGluR2, HEK 293T, PAM alone, normalized to saturating glutamate, mean ± s.e.m., read-out: GIRK activation EC50). The “inter-TMD FRET response to drug alone” value on SNAP-mGluR2-TMD is listed as “readily detectable FRET increase”. Besides, on SNAP-mGluR2-TMD (saturating concentrations), the “inter-TMD FRET response onset” value lay in the range of 10 to 40 s. Besides, the “inter-TMD FRET response reversal” value on SNAP-mGluR2-TMD (saturating concentrations) was under 2 min. Further, in assay [2] (50 nM LY48), the “effect on the glutamate-sensitivity of mGluR2 (GIRK)” value was “no effect on the glutamate-sensitivity of mGluR2”. The “highest concentration that did not produce a GIRK response on its own” value in assay [2] (full-length mGluR2) is listed as 50 nM. The “reversibility of GIRK currents after washout” value in assay [2] (full-length mGluR2, up to 10 min of washout) is reported as “fully-reversible currents”. The “maximal PAM-induced GIRK activation relative to glutamate” value in assay [2] (mGluR2-WT, relative to saturating glutamate) is reported as ~ 70%. For the same molecule, the “GIRK current time 10% to 90%” value in assay [2] (saturating: 10 µM LY48, 1 mM Glutamate) came out at 14.3 ± 3.5 s.

Take `N#Cc1cc(C2=Nc3ccc(Br)cc3NC(=O)C2)ccn1` [MNI 137]: in assay [1], the “direct effect on inter-LBD FRET (no orthosteric agonist for modulators)” value is “did not alter the basal inter-LBD FRET” and the “effect on inter-LBD FRET response to DCG-IV” value is recorded as “partial antagonism”. At SNAP-mGluR2-TMD (NAM versus LY48), the “effect on LY48-induced inter-TMD FRET response” value is recorded as “blocked”. Besides, the “effect on BINA-induced inter-TMD FRET increase” value at SNAP-mGluR2-TMD (applied after BINA) is “reversed the BINA-induced FRET increase back to baseline”. Moreover, the “effect on Ro 64-induced inter-TMD FRET increase” value at SNAP-mGluR2-TMD (applied after Ro 64) was “partially reverse”. The “inter-TMD FRET response to drug alone” value on SNAP-mGluR2-TMD is listed as “minimal FRET changes”. In addition, in assay [2], the “effect on basal GIRK current in the absence of glutamate” value was “no effect on basal current”. Also, in assay [2] (co-applied with LY48, saturating concentration for LY341495), the “effect of co-application on LY48-induced GIRK activation” value is given as “blocked”.

Take `Clc1cccc(Cl)c1/C(=C/n1cncn1)OC1CCCCCC1` [Ro 64]: in assay [1], the “direct effect on inter-LBD FRET (no orthosteric agonist for modulators)” value was “did not alter the basal inter-LBD FRET” and the “effect on inter-LBD FRET response to DCG-IV” value was “partial antagonism”. Besides, on SNAP-mGluR2-TMD, the “inter-TMD FRET OFF kinetics” value is listed as “very slow OFF kinetics” and the “inter-TMD FRET response to drug alone” value was “robust, dose-dependent inter-TMD FRET increases”. Moreover, the EC50 at SNAP-mGluR2-TMD (setting [3]) stood at 2100 ± 200 nM. The “effect on basal GIRK current in the absence of glutamate” value in assay [2] is recorded as “small but clear outward current”.
